In experiment [1] the test system is BRCA1. Kind of experiment: DDR gene expression (qPCR) in HCC70 cells. The experiment is classed as cell-based. The procedure:
HCC70 (ATCC CRL-2315) cells in 96-well plate format were treated with either DMSO or compound 1 for 2 hours. After compound treatment was done for 2 hours, the plates were washed by PBS once, then fresh culture medium was added to the cells and cells were incubated for 4, 10, 22, 46, 70 hours respectively. At each time point (4, 10, 22, 46, 70 hours after 2 h washout) RNA extraction was done according to manufacturer's instructions as follows. RNA Extraction and qPCR was done using the Ambion Cell to CT kit (Cat #AM1728). Briefly, cells were removed from the incubator, washed once in PBS, lysed by adding 50 μL Lysis Solution from the kit, mixed 5 times and 5 μL Stop Solution was added to the well. All actions were done using RNAase and DNAase free labware.
The Reverse Transcription Reaction mix was then prepared. All reagents were kept in an ice-water bath during the whole operation. […]
The setting of QuantStudio®5 Real-Time qPCR System was shown in the following figure and the fluorescence gain was set at 1×.
Data Analysis was done according to the QuantStudio5 Software. Threshold of signal was calculated by QuantStudio 5 software using the default setting. The relative gene expression was evaluated using the following formulas: […]
Gene expression was detected using qPCR with the Taqman (Applied Biosystems, ThermoFisher Scientific; Carlsbad, Calif.) probe listed in Table 7. […]

For experiment [2], the system named is OVCAR-3 tumors. Briefly: OVCAR-3 mouse xenograft model of ovarian cancer. The experiment is classed as in vivo, NOD SCID female mice. The source says:
To test the efficacy of the compounds in vivo, studies were done in mouse xenografts. For all studies, general procedures for animal care and housing were done in accordance with the standard, Commission on Life Sciences, National Research Council, Standard operating procedures (SOPs) of Pharmaron, Inc (Beijing, China). The mice were kept in laminar flow rooms at constant temperature and humidity with 3-5 mice in each cage with bedding changed once weekly. Animals were housed in polycarbonate cage which is in the size of 300×180×150 mm^3 and in an environmentally monitored, well-ventilated room maintained at a temperature of (22±3° C.) and a relative humidity of 40%-70% on a 12:12 light:dark cycle with full spectrum lighting. Each animal was assigned an identification number; the following identification method will be applied. Cage cards were labeled with such information as study number, group, sex, dose, animal number, initiation date, study director and telephone number. Animals were identified by ear coding. Animals had free access to irradiation sterilized dry granule food during the entire study period except for time periods specified by the protocol.
For the OVCAR-3 study, NOD SCID female mice bearing the OVCAR-3 tumors were randomized into 5 groups (n=9 mice per group) 17 day post tumor implantation with an average tumor volume of 150 mm^3. Each group received either vehicle (3% DMSO, 97.0% (20% HP-β-CD in water) or 5.0, 10, 20 and 25.0 mg/kg of compound 4 biweekly (Monday, Thursday), a total of 4 doses were intravenously administered through the course of 14 day efficacy study. Immediately after every treatment dose, a saline flush of 0.1 mL were also administered. One last dose was intravenously administered on Day 15 for end of study PK plasma and PD tumor collections as indicated in the protocol. Tumor volumes were measured by caliper 2 times a week and body weights of all animals were recorded throughout the study.
Protocol-required measurements and observations were recorded manually onto excel spread sheets. All statistical tests were conducted, and the level of significance was set at 5% or P<0.05. The group means, standard deviation was calculated for all measurement parameters as study designed. Two-way RM ANOVA followed by Tukeys post hoc comparisons of the means was utilized for this study.

Experiment [3] deals with T1, PRKG1 (Homo sapiens, UniProt Q13976).
T1 construct: either as full-length or enzymatically active fragments; purchased ProQinase GmbH (Reaction Biology)
T1 sequence (Q13976 whole entry, the tested form may be a part): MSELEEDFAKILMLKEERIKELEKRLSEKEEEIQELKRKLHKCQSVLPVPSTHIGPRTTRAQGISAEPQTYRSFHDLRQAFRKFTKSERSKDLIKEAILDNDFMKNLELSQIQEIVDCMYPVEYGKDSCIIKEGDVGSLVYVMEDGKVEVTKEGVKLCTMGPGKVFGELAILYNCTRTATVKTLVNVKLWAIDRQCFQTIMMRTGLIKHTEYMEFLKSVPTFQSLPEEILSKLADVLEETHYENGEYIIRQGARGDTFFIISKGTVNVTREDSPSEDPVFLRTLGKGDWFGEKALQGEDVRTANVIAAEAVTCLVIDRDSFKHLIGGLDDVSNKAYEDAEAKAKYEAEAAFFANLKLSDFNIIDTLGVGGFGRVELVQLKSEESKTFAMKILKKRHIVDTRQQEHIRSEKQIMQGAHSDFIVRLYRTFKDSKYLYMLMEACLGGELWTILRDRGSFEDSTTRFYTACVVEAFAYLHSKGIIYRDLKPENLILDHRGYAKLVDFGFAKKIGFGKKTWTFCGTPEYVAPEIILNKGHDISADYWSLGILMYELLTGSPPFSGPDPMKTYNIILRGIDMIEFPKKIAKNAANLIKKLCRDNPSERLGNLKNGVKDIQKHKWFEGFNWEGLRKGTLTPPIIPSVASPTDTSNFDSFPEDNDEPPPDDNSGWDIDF
Briefly: Radiometric kinase panel. The experiment is classed as biochemical. The procedure:
(§1) The compounds 1-5 (see Table 1) were assayed for kinase activity at ProQinase (ProQinase GmbH, Reaction Biology; Freiburg, Germany) using their commercially available radiometric kinase assay services. Briefly, the compounds were provided as solids and were dissolved to 1×10^−03 M/100% DMSO stock solutions on the day of assay. All protein kinases were provided by ProQinase and were expressed in Sf9 insect cells or in E. coli as recombinant GST-fusion proteins or His-tagged proteins, either as full-length or enzymatically active fragments. All kinases were produced from human cDNAs and purified by either GSH-affinity chromatography or immobilized metal. The purity of the protein kinases was examined by SDS-PAGE/Coomassie staining, the identity was checked by mass spectroscopy. A radiometric protein kinase assay (^33PanQinase® Activity Assay) was used for measuring the kinase activity of the protein kinase. All kinase assays were performed in 96-well FlashPlates™ from PerkinElmer (Boston, Mass., USA) in a 50 microliter reaction volume. The reaction cocktail was pipetted in four steps in the following order: 1) 25 microliter of assay buffer (standard buffer/[gamma-^33P]-ATP); 2) 10 microliter of ATP solution (in H2O); 3) 5 microliter of test compound (in 10% DMSO); 4) 10 microliter of enzyme/substrate mixture.
(§2) Compound 4 was analyzed for selectivity against a panel of other kinases at ProQinase using their commercially available radiometric kinase assay services and the methods described in Example 1.

In experiment [4] the test system is non-CDK12/13 kinases. Briefly: Radiometric kinase panel, summary. Type of experiment: biochemical, human. The settings on record: 1 μM. As for the experimental part:
as §1, with “The reaction cocktail was pipetted in four steps in the following order: 1) 25 microliter of assay buffer (standard buffer/[gamma-^33P]-ATP); 2) 10 microliter of ATP solution (in H2O); 3) 5 microliter of test compound (in 10% DMSO); 4) 10 microliter of enzyme/substrate mixture.” left out
as §2

The test system of experiment [5] is BRCA1. Kind of experiment: DDR gene expression in HCC70 xenograft tumor cells. The experiment is classed as in vivo, CB-17 SCID mice. The settings on record: single intravenous dose 20 or 25 mg/kg; 6 and 24 hours after dose. The procedure: A triple-negative xenograft model of breast cancer was used in this experiment. CB-17 SCID mice were inoculated with the HCC70 cells as the in vivo model for triple negative breast cancer. Each mouse was inoculated subcutaneously on the right flank with HCC70 tumor cells (5×10^6) in 0.1 mL of RPMI-1640 Medium and Matrigel mixture (1:1 ratio) for tumor development. The treatment started when the mean tumor size reached approximately 100-150 mm^3. Mice were treated with a single dose of either vehicle, 20 mg/kg compound 4, or 25 mg/kg of compound 4 intravenously. 0.5, 6, and 24 hours post dose, tumor cells were collected and analyzed for gene expression.

On to `C=CC(=O)Nc1ccc(C(=O)N2CC[C@@H](Nc3ncc(Cl)c(OC)n3)C2)cc1` [Compound 1, (R)-N-(4-(3-((5-chloro-4-methoxypyrimidin-2-yl)amino)pyrrolidine-1-carbonyl)phenyl)acrylamide], for which the “levels of BRCA1 expression” value in experiment [1] (2 hours treatment then washout, qPCR) is “reduction in levels of BRCA1 expression”. Also, in experiment [1] (after treatment (post-washout)), the “time of strongest reduction in gene expression (BRCA1)” value worked out at 10 h.

As a reminder, the inhibition is the drop in the measured response relative to a control, in per cent. For `C=CC(=O)Nc1ccc(C(=O)N2CC[C@@H](Nc3ncc(C#N)cn3)C2)cc1` [Compound 4, (R)-N-(4-(3-((5-cyanopyrimidin-2-yl)amino)pyrrolidine-1-carbonyl)phenyl)acrylamide], the T/C in experiment [2] (5.0 mg/kg intravenously biweekly for 14 days, compared to vehicle control) is 36%; in experiment [2] (10 mg/kg intravenously biweekly for 14 days, compared to vehicle control), 13%; in experiment [2] (20 mg/kg intravenously biweekly for 14 days), −7%; in experiment [2] (25 mg/kg intravenously biweekly for 14 days) it was −9%. Moreover, in experiment [3], the inhibition at 1 µM was -12%. The “average percent of inhibition against non-CDK12/13 kinases” value in experiment [4] is reported as “low average percent of inhibition”. For the same molecule, in experiment [5], the “BRCA1 expression in tumor cells” value is reported as “reduced”.

(Values after US20230074545A1, “TREATMENT OF CANCER WITH CDK12/13 INHIBITORS” (Kinnate Biopharma Inc., priority 2019, published 2023).)
